Inhibition and fold change (FC) data for three compounds are collected here from ChEMBL document CHEMBL5653631, “A Potent and Selective ULK1 Inhibitor Suppresses Autophagy and Sensitizes Cancer Cells to Nutrient Stress” (iScience, 2018).

Assay [1] has as its target Rho-associated protein kinase 2 (Homo sapiens) (UniProt O75116). In words: Inhibition of human recombinant ROCK2 at 40 nM in presence of ATP by radiometric assay relative to control.
For assay [2], the target named is T1, Serine/threonine-protein kinase ICK (Homo sapiens) (UniProt Q9UPZ9).
T1 sequence (whole entry): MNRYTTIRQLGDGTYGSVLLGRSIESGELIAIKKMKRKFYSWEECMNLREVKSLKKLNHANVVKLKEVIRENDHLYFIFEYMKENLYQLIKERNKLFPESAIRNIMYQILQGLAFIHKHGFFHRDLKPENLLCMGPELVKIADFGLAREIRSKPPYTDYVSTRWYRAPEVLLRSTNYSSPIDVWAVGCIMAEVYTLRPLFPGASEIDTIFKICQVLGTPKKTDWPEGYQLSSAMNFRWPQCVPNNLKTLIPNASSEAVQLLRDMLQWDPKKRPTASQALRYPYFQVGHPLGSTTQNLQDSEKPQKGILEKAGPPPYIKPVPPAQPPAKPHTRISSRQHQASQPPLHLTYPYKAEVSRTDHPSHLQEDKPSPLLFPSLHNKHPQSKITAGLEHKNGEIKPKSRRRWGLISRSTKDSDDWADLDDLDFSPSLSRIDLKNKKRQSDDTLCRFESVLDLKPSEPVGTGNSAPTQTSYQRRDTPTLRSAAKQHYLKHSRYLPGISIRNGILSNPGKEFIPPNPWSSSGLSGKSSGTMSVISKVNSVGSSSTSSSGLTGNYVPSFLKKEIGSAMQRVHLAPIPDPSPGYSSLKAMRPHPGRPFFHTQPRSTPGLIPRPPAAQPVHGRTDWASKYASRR
In words: Inhibition of human recombinant ICK at 500 nM in presence of ATP by radiometric assay relative to control.

Assay [3] addresses T2, Ephrin type-A receptor 3 (Homo sapiens) (UniProt P29320).
T2 sequence (whole entry): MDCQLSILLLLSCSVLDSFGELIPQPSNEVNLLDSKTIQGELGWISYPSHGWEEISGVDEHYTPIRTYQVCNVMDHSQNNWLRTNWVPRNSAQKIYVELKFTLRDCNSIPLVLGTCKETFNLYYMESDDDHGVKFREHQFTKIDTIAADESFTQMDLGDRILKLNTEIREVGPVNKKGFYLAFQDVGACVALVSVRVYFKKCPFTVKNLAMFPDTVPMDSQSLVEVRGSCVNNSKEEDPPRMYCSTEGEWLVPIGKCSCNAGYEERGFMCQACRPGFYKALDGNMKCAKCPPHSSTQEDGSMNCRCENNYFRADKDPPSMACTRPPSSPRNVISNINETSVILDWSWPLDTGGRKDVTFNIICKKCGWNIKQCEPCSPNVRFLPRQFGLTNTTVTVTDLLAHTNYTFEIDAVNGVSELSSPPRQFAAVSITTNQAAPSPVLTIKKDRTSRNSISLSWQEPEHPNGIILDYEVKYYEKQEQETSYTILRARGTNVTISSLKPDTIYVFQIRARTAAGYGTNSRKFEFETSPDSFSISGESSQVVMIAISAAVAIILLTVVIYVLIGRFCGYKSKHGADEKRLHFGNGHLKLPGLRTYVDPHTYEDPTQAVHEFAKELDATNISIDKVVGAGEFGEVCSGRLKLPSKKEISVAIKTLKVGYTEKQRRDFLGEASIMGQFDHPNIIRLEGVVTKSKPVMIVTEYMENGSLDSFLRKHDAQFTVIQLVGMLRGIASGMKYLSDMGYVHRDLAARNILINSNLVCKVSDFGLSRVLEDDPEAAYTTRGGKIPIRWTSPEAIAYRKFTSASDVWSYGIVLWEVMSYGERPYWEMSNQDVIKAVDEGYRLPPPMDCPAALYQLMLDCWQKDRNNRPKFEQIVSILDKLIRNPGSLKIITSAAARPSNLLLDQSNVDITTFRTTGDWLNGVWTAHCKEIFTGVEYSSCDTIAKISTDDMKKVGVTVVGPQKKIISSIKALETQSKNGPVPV
The assay can be described thus: Inhibition of human recombinant EphA3 at 500 nM in presence of ATP by radiometric assay relative to control.

Assay [4] addresses Tyrosine-protein kinase Fgr (Homo sapiens) (UniProt P09769). The assay can be described thus: Inhibition of human recombinant FGR at 500 nM related to control ULK1.
In assay [5] the target is T3, Tribbles homolog 2 (Homo sapiens) (UniProt Q92519).
T3 sequence (whole entry): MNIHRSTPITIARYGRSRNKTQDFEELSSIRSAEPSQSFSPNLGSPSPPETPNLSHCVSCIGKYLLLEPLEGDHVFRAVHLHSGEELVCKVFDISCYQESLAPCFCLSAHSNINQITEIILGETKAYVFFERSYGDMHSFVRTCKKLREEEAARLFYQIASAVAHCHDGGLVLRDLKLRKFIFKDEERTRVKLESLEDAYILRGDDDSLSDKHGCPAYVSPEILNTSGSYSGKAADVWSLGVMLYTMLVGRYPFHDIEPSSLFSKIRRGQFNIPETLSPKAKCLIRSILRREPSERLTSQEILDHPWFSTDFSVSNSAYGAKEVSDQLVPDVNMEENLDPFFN
The assay can be described thus: Inhibition of human recombinant Trb2 at 500 nM in presence of ATP by radiometric assay relative to control.

Assay [6] concerns the target Serine/threonine-protein kinase PAK 4 (Homo sapiens) (UniProt O96013). The assay can be described thus: Inhibition of human recombinant PAK4 at 15 nM in presence of ATP by radiometric assay relative to control.
Assay [7] concerns the target Receptor-interacting serine/threonine-protein kinase 2 (Homo sapiens) (UniProt O43353). In words: Inhibition of human recombinant RIPK2 at 15 nM related to control ULK1.
Assay [8] has as its target Serine/threonine-protein kinase 25 (Homo sapiens) (UniProt O00506). The assay can be described thus: Inhibition of human recombinant YSK1 at 15 nM in presence of ATP by radiometric assay relative to control.
Assay [9] concerns the target T4, Serine/threonine-protein kinase Sgk1 (Homo sapiens) (UniProt O00141).
T4 sequence (whole entry): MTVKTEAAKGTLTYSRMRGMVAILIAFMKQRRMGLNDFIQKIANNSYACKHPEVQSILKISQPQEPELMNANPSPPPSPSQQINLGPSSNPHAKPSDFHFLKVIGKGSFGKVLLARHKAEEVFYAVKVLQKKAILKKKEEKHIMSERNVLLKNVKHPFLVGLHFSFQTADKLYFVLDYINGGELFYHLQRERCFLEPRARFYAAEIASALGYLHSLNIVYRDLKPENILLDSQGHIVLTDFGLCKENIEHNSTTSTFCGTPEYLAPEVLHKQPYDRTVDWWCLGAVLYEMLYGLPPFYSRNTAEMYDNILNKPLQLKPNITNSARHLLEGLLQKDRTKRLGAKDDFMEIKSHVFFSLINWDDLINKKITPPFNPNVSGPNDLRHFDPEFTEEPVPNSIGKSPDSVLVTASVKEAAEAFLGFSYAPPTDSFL
In words: Inhibition of human recombinant SGK1 at 15 nM related to control ULK1.

One may read the inhibition as how much of the control response was suppressed.

Chain of Tyrosine-protein kinase Fgr (Homo sapiens) (P09769 2-529 limits assumed): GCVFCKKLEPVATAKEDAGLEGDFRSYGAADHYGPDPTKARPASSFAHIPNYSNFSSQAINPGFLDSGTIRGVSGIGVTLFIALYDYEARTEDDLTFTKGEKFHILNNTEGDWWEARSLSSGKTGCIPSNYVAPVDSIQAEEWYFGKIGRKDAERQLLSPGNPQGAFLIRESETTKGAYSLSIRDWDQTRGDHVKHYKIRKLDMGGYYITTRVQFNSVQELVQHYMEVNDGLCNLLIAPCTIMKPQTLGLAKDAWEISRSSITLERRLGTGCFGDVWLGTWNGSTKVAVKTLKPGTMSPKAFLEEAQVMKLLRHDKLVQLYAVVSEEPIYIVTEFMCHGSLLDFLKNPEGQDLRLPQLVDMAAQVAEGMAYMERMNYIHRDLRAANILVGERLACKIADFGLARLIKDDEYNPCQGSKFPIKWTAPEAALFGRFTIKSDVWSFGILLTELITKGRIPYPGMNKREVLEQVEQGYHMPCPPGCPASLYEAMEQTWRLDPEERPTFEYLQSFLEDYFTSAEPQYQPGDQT
Chain of Serine/threonine-protein kinase PAK 4 (Homo sapiens) (O96013 whole entry, looked up): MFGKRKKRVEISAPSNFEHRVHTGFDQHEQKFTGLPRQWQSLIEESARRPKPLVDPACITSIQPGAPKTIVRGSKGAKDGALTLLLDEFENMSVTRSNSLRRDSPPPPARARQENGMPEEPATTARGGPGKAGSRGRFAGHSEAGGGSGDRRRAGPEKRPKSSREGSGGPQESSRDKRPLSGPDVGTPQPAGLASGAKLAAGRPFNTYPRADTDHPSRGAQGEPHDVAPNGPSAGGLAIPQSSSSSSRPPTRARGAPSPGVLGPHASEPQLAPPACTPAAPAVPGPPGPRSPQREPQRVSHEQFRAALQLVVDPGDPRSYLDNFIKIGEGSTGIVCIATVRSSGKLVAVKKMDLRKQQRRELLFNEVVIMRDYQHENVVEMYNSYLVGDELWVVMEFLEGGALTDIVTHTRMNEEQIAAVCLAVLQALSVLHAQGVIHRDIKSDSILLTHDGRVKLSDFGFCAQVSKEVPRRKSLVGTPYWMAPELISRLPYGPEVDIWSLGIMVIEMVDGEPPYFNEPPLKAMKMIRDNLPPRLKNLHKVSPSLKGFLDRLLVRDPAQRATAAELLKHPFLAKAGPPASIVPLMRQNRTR
Chain of Receptor-interacting serine/threonine-protein kinase 2 (Homo sapiens) (O43353 whole entry): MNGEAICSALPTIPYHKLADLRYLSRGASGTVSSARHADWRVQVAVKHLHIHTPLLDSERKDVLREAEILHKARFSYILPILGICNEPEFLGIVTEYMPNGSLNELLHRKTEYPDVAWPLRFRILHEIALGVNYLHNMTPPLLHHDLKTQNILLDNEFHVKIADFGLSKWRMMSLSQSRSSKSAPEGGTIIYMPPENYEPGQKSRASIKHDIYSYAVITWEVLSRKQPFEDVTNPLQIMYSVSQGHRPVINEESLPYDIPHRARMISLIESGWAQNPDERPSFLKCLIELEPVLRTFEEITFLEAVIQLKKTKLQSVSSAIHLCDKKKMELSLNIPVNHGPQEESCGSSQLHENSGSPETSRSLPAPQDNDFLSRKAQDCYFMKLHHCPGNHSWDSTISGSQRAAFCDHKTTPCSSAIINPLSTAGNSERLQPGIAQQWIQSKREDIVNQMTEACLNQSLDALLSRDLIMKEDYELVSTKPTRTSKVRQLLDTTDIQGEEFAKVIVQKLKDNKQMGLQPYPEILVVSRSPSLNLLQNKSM
Chain of Rho-associated protein kinase 2 (Homo sapiens) (O75116 whole entry, looked up): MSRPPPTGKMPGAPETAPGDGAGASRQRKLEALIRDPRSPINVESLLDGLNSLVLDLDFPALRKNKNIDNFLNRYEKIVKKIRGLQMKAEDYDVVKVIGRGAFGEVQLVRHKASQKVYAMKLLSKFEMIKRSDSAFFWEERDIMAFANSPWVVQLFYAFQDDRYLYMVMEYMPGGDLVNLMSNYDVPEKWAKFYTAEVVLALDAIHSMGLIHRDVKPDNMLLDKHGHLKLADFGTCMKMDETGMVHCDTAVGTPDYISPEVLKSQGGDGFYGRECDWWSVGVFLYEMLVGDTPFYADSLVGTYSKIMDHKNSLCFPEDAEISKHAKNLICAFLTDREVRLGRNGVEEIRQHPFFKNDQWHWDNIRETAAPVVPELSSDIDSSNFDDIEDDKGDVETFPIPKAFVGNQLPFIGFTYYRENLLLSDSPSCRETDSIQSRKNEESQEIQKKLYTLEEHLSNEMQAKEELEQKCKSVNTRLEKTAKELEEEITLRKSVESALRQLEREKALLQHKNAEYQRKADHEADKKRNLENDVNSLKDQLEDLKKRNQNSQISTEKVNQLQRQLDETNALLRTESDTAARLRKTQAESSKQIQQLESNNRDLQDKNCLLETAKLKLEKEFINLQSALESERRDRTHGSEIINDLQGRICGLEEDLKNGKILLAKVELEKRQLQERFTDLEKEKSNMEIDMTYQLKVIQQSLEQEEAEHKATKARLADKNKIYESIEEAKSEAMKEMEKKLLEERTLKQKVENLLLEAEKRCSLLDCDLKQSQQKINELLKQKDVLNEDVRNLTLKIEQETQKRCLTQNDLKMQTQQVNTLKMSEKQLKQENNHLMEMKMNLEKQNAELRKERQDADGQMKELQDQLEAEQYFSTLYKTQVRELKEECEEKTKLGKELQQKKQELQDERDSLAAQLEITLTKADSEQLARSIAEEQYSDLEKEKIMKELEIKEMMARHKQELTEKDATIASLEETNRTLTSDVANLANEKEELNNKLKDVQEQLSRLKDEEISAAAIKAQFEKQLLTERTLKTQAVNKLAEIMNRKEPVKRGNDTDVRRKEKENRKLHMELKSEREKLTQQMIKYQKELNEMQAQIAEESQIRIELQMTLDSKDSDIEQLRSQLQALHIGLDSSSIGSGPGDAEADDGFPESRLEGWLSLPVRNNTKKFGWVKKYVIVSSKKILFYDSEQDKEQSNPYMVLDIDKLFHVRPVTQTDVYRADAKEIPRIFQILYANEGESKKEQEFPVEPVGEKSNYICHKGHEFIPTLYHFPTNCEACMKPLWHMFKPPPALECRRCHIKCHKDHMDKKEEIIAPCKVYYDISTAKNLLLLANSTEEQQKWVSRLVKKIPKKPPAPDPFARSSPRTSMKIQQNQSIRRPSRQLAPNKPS
Chain of Serine/threonine-protein kinase 25 (Homo sapiens) (O00506 whole entry, looked up): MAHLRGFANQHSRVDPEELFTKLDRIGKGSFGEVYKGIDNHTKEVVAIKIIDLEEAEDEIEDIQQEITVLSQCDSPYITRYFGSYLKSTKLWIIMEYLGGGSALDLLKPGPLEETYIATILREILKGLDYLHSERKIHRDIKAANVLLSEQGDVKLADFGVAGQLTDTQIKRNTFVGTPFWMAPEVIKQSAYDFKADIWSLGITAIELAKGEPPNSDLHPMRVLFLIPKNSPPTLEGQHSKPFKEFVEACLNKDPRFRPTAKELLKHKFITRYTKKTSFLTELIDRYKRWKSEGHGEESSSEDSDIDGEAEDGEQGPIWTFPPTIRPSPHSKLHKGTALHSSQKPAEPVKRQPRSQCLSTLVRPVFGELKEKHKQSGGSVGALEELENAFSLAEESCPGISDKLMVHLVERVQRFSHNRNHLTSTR

Turning to `O=C(N[C@@H](C1CC1)C(F)(F)F)c1cc(-c2cnn3cc(-c4ccc(F)cc4)cnc23)cs1`, the inhibition in assay [1] came to 2%.
Take `CNC(=O)c1ccccc1Oc1nc(Nc2cc(OC)c(OC)c(OC)c2)ncc1Br`: the inhibition in assay [2] was found to be 3%; in assay [3], 11%; in [5], 0%. The fold change (FC) in [4] was found to be 0.11.
`CC(C)[C@H](NC(=O)c1cc(-c2cnn3cc(-c4ccc(OCCN5CCCCC5)cc4)cnc23)cs1)C(F)(F)F`: the inhibition in assay [6] and in [8] was 0% throughout. Further, the fold change (FC) amounted to 0.11 in assay [7] and 0.05 in [9].
